Assay results as given in article PMC11050816, “Pharmacokinetics and Safety of Lurbinectedin Administrated with Itraconazole in Cancer Patients: A Drug–Drug Interaction Study” (Marine Drugs, 2024).
Read-outs that look alike come from different tables or passages of the source.

What was measured:
[1] = Total plasma lurbinectedin pharmacokinetics with and without itraconazole (phase Ib drug-drug interaction study); format: in vivo, human
Excerpt: (§1) The study consisted of two parts.

[2] = Unbound plasma lurbinectedin pharmacokinetics with and without itraconazole (phase Ib drug-drug interaction study); format: in vivo, human
Excerpt: as §1

[3] = Safety assessment: adverse events and laboratory abnormalities graded by NCI-CTCAE v. 5.0; format: in vivo, human
Excerpt: Safety analyses included all 14 patients who received at least one dose of lurbinectedin (Part A, n = 3; Part B, n = 11). Thirteen of the fourteen treated patients (three in Part A and ten in Part B) received itraconazole plus lurbinectedin in Cycles 1 or 2, and all fourteen treated patients (three in Part A and 11 in Part B) received lurbinectedin alone in Cycles 1, 2, or 3.
as §1
Safety evaluations included assessments of AEs, clinical laboratory tests, deaths, vital signs measurements, and physical examinations. TEAEs were defined as any AE that worsened in severity from baseline or having their onset between the first dose of the study drug and 31 days (±10 days) after the last dose, death, or date of further therapy. AEs were coded based on the Medical Dictionary for Regulatory Activities (MedDRA) v. 23.0 and graded as per the National Cancer Institute–Common Terminology Criteria for Adverse Events (NCI-CTCAE) v. 5.0.

[4] = cited from earlier work
[5] = set-up: method as in PMID 24563480; details: 1.3 mg/m^2 over 1 h without CYP3A4 inhibitors; cited from earlier work
[6] = cited from earlier work; remark: listed apart in the source
cytochrome P450 (CYP) 3A = details: based on in vitro studies; cited from earlier work
[7] = co-administration with itraconazole compared to lurbinectedin alone
[8] = co-administration with itraconazole compared to lurbinectedin alone, listed as LRB
[9] = co-administration with multiple oral doses of itraconazole
[10] = total plasma lurbinectedin, n = 8 patients per treatment
[11] = unbound plasma lurbinectedin, Test n = 5, Reference n = 8
[12] = Part A (LRB 0.8 mg/m^2 with ITZ, 3.2 mg/m^2 alone), all grades
[13] = Part A (LRB 0.8 mg/m^2 with ITZ, 3.2 mg/m^2 alone), grade 3
[14] = Part A (LRB 0.8 mg/m^2 with ITZ, 3.2 mg/m^2 alone), grade 4
[15] = Part B (LRB 0.9 mg/m^2 with ITZ, 3.2 mg/m^2 alone), all grades
[16] = Part B (LRB 0.9 mg/m^2 with ITZ, 3.2 mg/m^2 alone), grade 3
[17] = Part B (LRB 0.9 mg/m^2 with ITZ, 3.2 mg/m^2 alone), grade 4

Structure (SMILES): COc1ccc2[nH]c3c(c2c1)CCN[C@]31CS[C@@H]2c3c(OC(C)=O)c(C)c4c(c3[C@H](COC1=O)N1[C@@H]2[C@H]2c3c(cc(C)c(OC)c3O)C[C@@H]([C@@H]1O)N2C)OCO4 [lurbinectedin]
- Increase of total plasma AUC0–t [1, 7]: approximately 2.4 fold
- Increase of total plasma AUC0–∞ [1, 7]: approximately 2.7 fold
- Increase of total plasma Cmax [1, 7]: 15%
- Increase of total plasma AUC0–t [1, 8]: 2.4 fold
- Increase of total plasma AUC0–∞ [1, 8]: 2.7 fold
- Prolongation of terminal half-life (t1/2), total plasma [1, 9]: 2.2 fold
- Reduction of total plasma CL [1, 9]: 63%
- clearance ([1]; human, intravenous, 3.2 mg/m^2, total plasma lurbinectedin, n = 8 patients per treatment, read-out: CL, geometric mean (CV%) (converted)): 158 mL/min
- Vd ([1]; human, intravenous, 3.2 mg/m^2, total plasma lurbinectedin, n = 8 patients per treatment, read-out: Vss, geometric mean (CV%)): 419 L
- half-life ([1]; human, intravenous, 3.2 mg/m^2, total plasma lurbinectedin, n = 8 patients per treatment, read-out: t1/2, geometric mean (CV%) (converted)): 46.6 h
- AUC0–t, dose-normalized, geometric mean (CV%) [1, 10]: 103.4 (78.85) µg·h/L/mg
- AUC0–∞, dose-normalized, geometric mean (CV%) [1, 10]: 105.8 (77.37) µg·h/L/mg
- Cmax, dose-normalized, geometric mean (CV%) [1, 10]: 22.43 (53.75) µg/L/mg
- Decrease of unbound CL [2, 7]: 58%
- Increase of unbound AUC0–∞ [2, 7]: 2.4 fold
- Unbound t1/2 longer [2, 7]: 2 fold
- Vd ([2]; human, intravenous, 3.2 mg/m^2, unbound plasma lurbinectedin, Test n = 5, Reference n = 8, read-out: Unbound Vss, geometric mean (CV%)): 235000 L
- half-life ([2]; human, intravenous, 3.2 mg/m^2, unbound plasma lurbinectedin, Test n = 5, Reference n = 8, read-out: Unbound t1/2, geometric mean (CV%) (converted)): 46.6 h
- Unbound AUC0–t, dose-normalized, geometric mean (CV%) [2, 11]: 184.55 (57.58) pg·h/mL/mg
- Unbound AUC0–∞, dose-normalized, geometric mean (CV%) [2, 11]: 188.84 (56.92) pg·h/mL/mg
- Unbound CL, geometric mean (CV%) [2, 11]: 5295.44 (56.92) L/h
- Unbound Cmax, dose-normalized, geometric mean (CV%) [2, 11]: 40.03 (21.75) pg/mL/mg
- Tolerability ([3]; 0.9 mg/m^2 1 h IV infusion Day 1 q3wk with itraconazole): well tolerated
- ALT increased (biochemical laboratory abnormality, regardless of relationship) [3, 12]: 1 (33) n (%) of patients
- Anemia (hematological laboratory abnormality, regardless of relationship) [3, 12]: 3 (100) n (%) of patients
- Constipation (treatment-related AE) [3, 12]: 1 (33) n (%) of patients
- GGT increased (biochemical laboratory abnormality, regardless of relationship) [3, 12]: 1 (33) n (%) of patients
- Leukopenia (hematological laboratory abnormality, regardless of relationship) [3, 12]: 3 (100) n (%) of patients
- Lymphopenia (hematological laboratory abnormality, regardless of relationship) [3, 12]: 3 (100) n (%) of patients
- Neutropenia (hematological laboratory abnormality, regardless of relationship) [3, 12]: 2 (67) n (%) of patients
- Thrombocytopenia (hematological laboratory abnormality, regardless of relationship) [3, 12]: 2 (67) n (%) of patients
- Vomiting (treatment-related AE) [3, 12]: 1 (33) n (%) of patients
- ALT increased (biochemical laboratory abnormality, regardless of relationship) [3, 13]: 1 (33) n (%) of patients
- Leukopenia (hematological laboratory abnormality, regardless of relationship) [3, 13]: 1 (33) n (%) of patients
- Lymphopenia (hematological laboratory abnormality, regardless of relationship) [3, 13]: 1 (33) n (%) of patients
- Leukopenia (hematological laboratory abnormality, regardless of relationship) [3, 14]: 1 (33) n (%) of patients
- Neutropenia (hematological laboratory abnormality, regardless of relationship) [3, 14]: 2 (67) n (%) of patients
- Bone pain (treatment-emergent AE, regardless of relationship) ([3]; Part A, all grades): 1 (33) n (%) of patients
- Constipation (treatment-emergent AE, regardless of relationship) ([3]; Part A, all grades): 1 (33) n (%) of patients
- Dysgeusia (treatment-emergent AE, regardless of relationship) ([3]; Part A, all grades): 1 (33) n (%) of patients
- Fatigue (treatment-emergent AE, regardless of relationship) ([3]; Part A, all grades): 1 (33) n (%) of patients
- Pleural effusion (treatment-emergent AE, regardless of relationship) ([3]; Part A, all grades): 1 (33) n (%) of patients
- Vomiting (treatment-emergent AE, regardless of relationship) ([3]; Part A, all grades): 1 (33) n (%) of patients
- Pleural effusion (treatment-emergent AE, regardless of relationship) ([3]; Part A, grade 3): 1 (33) n (%) of patients
- ALT increased (biochemical laboratory abnormality, regardless of relationship) [3, 15]: 9 (82) n (%) of patients
- Acute kidney injury (treatment-related AE) [3, 15]: 1 (9) n (%) of patients
- Anemia (hematological laboratory abnormality, regardless of relationship) [3, 15]: 9 (82) n (%) of patients
- CPK increased (biochemical laboratory abnormality, regardless of relationship) [3, 15]: 1 (9) n (%) of patients
- Fatigue (treatment-related AE) [3, 15]: 2 (18) n (%) of patients
- GGT increased (biochemical laboratory abnormality, regardless of relationship) [3, 15]: 4 (36) n (%) of patients
- Leukopenia (hematological laboratory abnormality, regardless of relationship) [3, 15]: 8 (73) n (%) of patients
- Lymphopenia (hematological laboratory abnormality, regardless of relationship) [3, 15]: 9 (82) n (%) of patients
- Nausea (treatment-related AE) [3, 15]: 5 (45) n (%) of patients
- Neutropenia (hematological laboratory abnormality, regardless of relationship) [3, 15]: 8 (73) n (%) of patients
- Rhabdomyolysis (treatment-related AE) [3, 15]: 1 (9) n (%) of patients
- Thrombocytopenia (hematological laboratory abnormality, regardless of relationship) [3, 15]: 8 (73) n (%) of patients
- Vomiting (treatment-related AE) [3, 15]: 3 (27) n (%) of patients
- Acute kidney injury (treatment-related AE) [3, 16]: 1 (9) n (%) of patients
- Anemia (hematological laboratory abnormality, regardless of relationship) [3, 16]: 1 (9) n (%) of patients
- GGT increased (biochemical laboratory abnormality, regardless of relationship) [3, 16]: 1 (9) n (%) of patients
- Leukopenia (hematological laboratory abnormality, regardless of relationship) [3, 16]: 5 (45) n (%) of patients
- Lymphopenia (hematological laboratory abnormality, regardless of relationship) [3, 16]: 2 (18) n (%) of patients
- Neutropenia (hematological laboratory abnormality, regardless of relationship) [3, 16]: 5 (45) n (%) of patients
- Rhabdomyolysis (treatment-related AE) [3, 16]: 1 (9) n (%) of patients
- Vomiting (treatment-related AE) [3, 16]: 1 (9) n (%) of patients
- CPK increased (biochemical laboratory abnormality, regardless of relationship) [3, 17]: 1 (9) n (%) of patients
- Leukopenia (hematological laboratory abnormality, regardless of relationship) [3, 17]: 1 (9) n (%) of patients
- Lymphopenia (hematological laboratory abnormality, regardless of relationship) [3, 17]: 1 (9) n (%) of patients
- Neutropenia (hematological laboratory abnormality, regardless of relationship) [3, 17]: 3 (27) n (%) of patients
- Thrombocytopenia (hematological laboratory abnormality, regardless of relationship) [3, 17]: 1 (9) n (%) of patients
- Acute kidney injury (treatment-emergent AE, regardless of relationship) ([3]; Part B, all grades): 1 (9) n (%) of patients
- Deep vein thrombosis (treatment-emergent AE, regardless of relationship) ([3]; Part B, all grades): 1 (9) n (%) of patients
- Diarrhea (treatment-emergent AE, regardless of relationship) ([3]; Part B, all grades): 1 (9) n (%) of patients
- Fatigue (treatment-emergent AE, regardless of relationship) ([3]; Part B, all grades): 2 (18) n (%) of patients
- Intestinal pseudo-obstruction (treatment-emergent AE, regardless of relationship) ([3]; Part B, all grades): 1 (9) n (%) of patients
- Nausea (treatment-emergent AE, regardless of relationship) ([3]; Part B, all grades): 5 (45) n (%) of patients
- Respiratory failure (treatment-emergent AE, regardless of relationship) ([3]; Part B, all grades): 1 (9) n (%) of patients
- Rhabdomyolysis (treatment-emergent AE, regardless of relationship) ([3]; Part B, all grades): 1 (9) n (%) of patients
- Small intestinal obstruction (treatment-emergent AE, regardless of relationship) ([3]; Part B, all grades): 1 (9) n (%) of patients
- Stomatitis (treatment-emergent AE, regardless of relationship) ([3]; Part B, all grades): 1 (9) n (%) of patients
- Vomiting (treatment-emergent AE, regardless of relationship) ([3]; Part B, all grades): 3 (27) n (%) of patients
- Acute kidney injury (treatment-emergent AE, regardless of relationship) ([3]; Part B, grade 3): 1 (9) n (%) of patients
- Deep vein thrombosis (treatment-emergent AE, regardless of relationship) ([3]; Part B, grade 3): 1 (9) n (%) of patients
- Rhabdomyolysis (treatment-emergent AE, regardless of relationship) ([3]; Part B, grade 3): 1 (9) n (%) of patients
- Small intestinal obstruction (treatment-emergent AE, regardless of relationship) ([3]; Part B, grade 3): 1 (9) n (%) of patients
- Vomiting (treatment-emergent AE, regardless of relationship) ([3]; Part B, grade 3): 1 (9) n (%) of patients
- Patients with lurbinectedin dose reduction due to AEs ([3]; during treatment with lurbinectedin alone (grade 3 ALT increase; grade 4 neutropenia)): Two
- Patients who discontinued treatment due to a treatment-related serious AE ([3]; grade 3 rhabdomyolysis, Cycle 2 of Part B (Sequence 1), lurbinectedin alone): one
- Population estimate for total plasma CL ([4]; 1 h IV infusion, single agent or combined): 11.2 L/h
- Extraction ratio [4]: 0.19
- Population estimate of apparent volume at steady state [4]: 438 L
- Reduction of CL ([4]; co-administration of cytochrome CYP3A inhibitors): 30%
- Decrease of mean plasma CL ([4]; concomitant administration of aprepitant (a moderate CYP3A4 inhibitor)): 30%
- Blood CL ([4]; corresponding to total plasma CL 11.2 L/h): ~ 17 L/h
- Reduction of CL ([4]; high C-reactive protein): 20%
- Reduction of CL ([4]; high α-1-acid glycoprotein): 28%
- Reduction of CL ([4]; low albumin): 20%
- Time after starting the infusion for which plasma concentrations were measurable [5]: at least 160 h
- Protein binding [6]: highly protein-bound
- Major clearance (CL) mechanism (cytochrome P450 (CYP) 3A): metabolism of lurbinectedin by cytochrome P450 (CYP) 3A
